What follows are compounds tested against T1, Peptidyl-prolyl cis-trans isomerase ESS1 (Saccharomyces cerevisiae (strain ATCC 204508 / S288c), UniProt P22696) (assay: Pin1 Inhibition Assay). Conditions: pH 7; 0 °C.
T1 sequence (P22696 whole entry): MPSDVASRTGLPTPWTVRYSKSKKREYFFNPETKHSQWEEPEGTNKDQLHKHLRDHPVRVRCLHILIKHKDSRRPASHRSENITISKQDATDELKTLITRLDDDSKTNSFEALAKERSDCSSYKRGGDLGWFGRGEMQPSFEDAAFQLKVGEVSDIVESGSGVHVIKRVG
Description: Assay was carried out measuring the MCA fluorescence using Suc-Ala-Glu-Pro-Phe-MCA as substrate purchased from Japan Peptide Institute Co.

Question: `CC(C)C[C@H](NC(=O)c1[nH]cnc1C(=O)N[C@@H](C)C(=O)OC(C)(C)C)C(=O)OCc1ccccc1` [(phenylmethyl) (2S)-4-methyl-2-[[4-[[(2S)-1-[(2-methylpropan-2-yl)oxy]-1-oxidanylidene-propan-2-yl]carbamoyl]-1H-imidazol-5-yl]carbonylamino]pentanoate] was tested. Which IC50 did it give?
Answer: > 10 µM

Question: `COc1ccc(Br)cc1[C@H]1[C@@H]2C=CCC[C@@]2(C)C(=O)N1Cc1ccccc1` [(3R,3aR,7aR)-2-benzyl-3-(5-bromo-2-methoxy-phenyl)-7a-methyl-3,3a,6,7-tetrahydroisoindol-1-one] was tested. Which IC50 did it give?
Answer: 5 µM

Question: Which IC50 does the source give for `CCOC(=O)c1ccc(NC(=O)c2[nH]cnc2C(=O)N[C@@H](CCCCNC(=O)OC(C)(C)C)C(=O)OC(C)(C)C)cc1` [MLS000849609] here?
Answer: 2.5 µM

Question: With `Cc1cccc(NC(=O)c2[nH]cnc2C(=O)N[C@@H](CCCCNC(=O)OC(C)(C)C)C(=O)OC(C)(C)C)c1` [ILP-IV-14] as the compound, how does the IC50 read?
Answer: > 10 µM

Question: `C[C@@]12CCC=C[C@H]1[C@H](c1ccc3ccccc3c1Br)N(Cc1ccccc1)C2=O` [(3R,3aR,7aR)-3-(1-bromanylnaphthalen-2-yl)-7a-methyl-2-(phenylmethyl)-3,3a,6,7-tetrahydroisoindol-1-one] was tested. Which IC50 did it give?
Answer: 1.5 µM

Question: `CCOC(=O)c1ccc(NC(=O)c2[nH]cnc2C(=O)N[C@@H](Cc2ccccc2)C(=O)OC(C)(C)C)cc1` [ethyl 4-[[5-[[(2S)-1-[(2-methylpropan-2-yl)oxy]-1-oxidanylidene-3-phenyl-propan-2-yl]carbamoyl]-1H-imidazol-4-yl]carbonylamino]benzoate] was tested. Which IC50 did it give?
Answer: > 10 µM

Question: For `COc1ccc(C2/C=C\CN(C(=O)c3ccccc3)CC(=O)N2Cc2ccc(F)cc2)cc1` (stereo not drawn), which IC50 is on record?
Answer: > 10 µM

Question: For `CC[C@@H]1CC=C[C@H]2[C@H]1C(=O)N(Cc1ccccc1)[C@H]2c1ccc(OC)c(Cl)c1` [(3R,3aS,7R,7aS)-3-(3-chloranyl-4-methoxy-phenyl)-7-ethyl-2-(phenylmethyl)-3a,6,7,7a-tetrahydro-3H-isoindol-1-one], which IC50 is on record?
Answer: 2 µM

Question: For `COc1ccccc1-c1cc(=O)c2c(O)ccc([N+](=O)[O-])c2o1` [MLS000518626], which IC50 is on record?
Answer: > 10 µM

Question: For `O=C(O)CN1C(=O)c2cccc3cccc(c23)C1=O` [(1,3-dioxo-1H-benzo[de]isoquinolin-2(3H)-yl)acetic acid], which IC50 is on record?
Answer: > 10 µM

Question: For `COc1ccc(C2CC(O)(c3ccccc3)Oc3c(C)ccc(C)c32)cc1` (stereo not drawn) [4-(4-methoxyphenyl)-5,8-dimethyl-2-phenyl-chroman-2-ol], which IC50 is on record?
Answer: 5 µM

Question: For `CC(C)C[C@H](NC(=O)c1[nH]cnc1C(=O)N1CCc2ccccc2C1)C(=O)OCc1ccccc1` [(2S)-2-[[[5-[3,4-dihydro-1H-isoquinolin-2-yl(oxo)methyl]-1H-imidazol-4-yl]-oxomethyl]amino]-4-methylpentanoic acid (phenylmethyl) ester], which IC50 is on record?
Answer: > 1.5 µM

Question: Which IC50 does the source give for `Cc1ccc(-c2cc([C@H]3[C@@H]4C=CCC[C@@]4(C)C(=O)N3Cc3ccccc3)ccc2F)cc1` [(3R,3aR,7aR)-3-[4-fluoro-3-(4-methylphenyl)phenyl]-7a-methyl-2-(phenylmethyl)-3,3a,6,7-tetrahydroisoindol-1-one] here?
Answer: 5 µM
